Source: paper PMC5571044 (Scientific Reports, 2017)

Assays:
PB2long N510T mutant = assay type: binding, influenza A/Udorn/307/1972(H3N2)
[1] = system: FluA Udorn replicon with PB2 N510T; assay type: cell-based, influenza A/H3N2/Udorn/72 in 293 T cells

**Q.** Which results are given for `O=C(O)[C@H]1C2CCC(CC2)[C@@H]1Nc1nc(-c2c[nH]c3ncc(F)cc23)ncc1F` [VX-787]?
**A.** KD fold change, PB2long N510T (PB2long N510T mutant): 90 fold; fold loss of cellular EC50, N510T vs WT replicon [1]: 90 fold
